Marks after values point to notes of the source that are not given here.
Experiments:
SK-MEL-28 cells [1] = experiment: RealTime-Glo Annexin V Apoptosis and Necrosis Assay (cell death determination); format: cell-based, human; settings: TRAIL 400 ng/mL, paclitaxel 1 μM, digitonin 25 μg/mL
Text: A RealTime-Glo™ Annexin V Apoptosis and Necrosis Assay (Promega, Madison, WI, USA) was utilized for the real-time assessment of cell death. This monitors phosphatidylserine exposure on the outer leaflet of the cytoplasmic membrane (increase in luminescence signal) together with binding of the membrane-impermeable probe to DNA (increase in fluorescence signal) that accompanies a loss of membrane integrity, typical for late stages of apoptosis (secondary necrosis) or necrotic type of cell death. According to the manufacturer, this assay uses Annexin V fusion proteins containing complementary subunits of luciferase (Annexin V-LgBiT and Annexin V-SmBiT). The luminescence signal is low until both subunits bind to phosphatidylserine, and in close vicinity form functional luciferase.
For this assay, SK-MEL-28 cells were seeded onto 96-well white clear-bottom plates (Corning, New York, NY, USA) in a 1:1 mixture of DMEM and CO2 independent medium (Gibco; supplemented with 10% FBS, 1% penicillin/streptomycin solution and 4 mM ultraglutamine I). The next day, the medium was replaced with a fresh CO2 independent medium, and cells were incubated overnight. The next day, studied PSs dissolved in a CO2 independent medium in concentrations corresponding to their EC85 were added as described above. […] After mixing, samples were placed into a plate reader with a temperature control (Tecan Spark, Männedorf, Switzerland) and measured each 15 min for 24 h—luminescence (200 ms integration time) and fluorescence (λexc = 485 nm; λemi = 530 nm, BPexc/emi = 20 nm; 10 flashes per well, 40 μs integration time).
Digitonin (25 μg/mL), TRAIL (400 ng/mL), and paclitaxel (1 μM) were used as positive controls for membrane-disturbing-agent induced necrosis, extrinsic-pathway-mediated apoptosis, and intrinsic-pathway-mediated apoptosis, respectively. Cell-free wells (no-cell controls) were used to subtract background luminescence and fluorescence for each time point. […]

HeLa cells [2] = test system: HeLa cells; parameters: method as in PMID 27682881; settings: on HeLa cells; cited from earlier work
HeLa cells [3] = test system: HeLa cells; parameters: method as in PMID 27682881; settings: cited from earlier work; for EC50: HeLa, λ > 570 nm, 12.4 mW cm−2, 15 min, 11.2 J cm−2, read-out: EC50, photodynamic activity; for TC50/EC50, phototherapeutic index: on HeLa cells
[4] = parameters: method as in doi:10.1016/0009-2614(96)00838-X; settings: in EtOH; cited from earlier work
[5] = parameters: method as in PMID 10546544; settings: in MeOH; cited from earlier work
SK-MEL-28 cells [6] = experiment: Dark toxicity (without irradiation), Neutral Red uptake; format: cell-based, human; settings: 24 h in the dark, compounds precipitated over listed values
Method: (§1) The human cervical carcinoma (HeLa) and human melanoma (SK-MEL-28) cell lines were purchased from the American Type Cell Culture Collection (ATCC; Manassas, VA, USA). Both cell lines were cultured in Dulbecco’s modified Eagle’s medium (DMEM) without phenol red (Lonza, Verviers, Belgium) and supplemented with 10% heat-inactivated fetal bovine serum (Sigma-Aldrich (Merck, Darmstadt, Germany), 1% penicillin/streptomycin solution (Lonza), 10 mM HEPES buffer (Lonza), and 4 mM ultraglutamine I (alanyl-L-glutamine; Lonza). The cell lines were cultured in 75 cm^2 tissue culture flasks (TPP, Trasadingen, Switzerland) and maintained in a CO2 incubator at 37 °C in a humidified atmosphere of 5% CO2 and subcultured every 3−4 days. For the cytotoxicity experiments (phototoxicity and dark toxicity), cells were seeded into 96-well plates (TPP) at a density of 7.5 × 10^3 (HeLa and SK-MEL-28) cells per well for 24 h.
(§2) Stock solutions of the investigated compounds were prepared in DMSO at a concentration of 0.5 mM (4b) or 1 mM (all other compounds) and were sterilized by filtration through 0.22 μm syringe MCE filters. The stock solutions were diluted by the above-mentioned cell culture medium to the required concentrations. The maximum DMSO concentration in the medium in the experiments was 1% (2% in case of cpd. 4b). Cytoxicity of DMSO at corresponding concentrations (without studied compounds) was assessed in all cytotoxicity experiments as well—no toxicity against SK-MEL-28 or HeLa cells was observed.
To assess dark toxicities (inherent toxicities of the studied compounds without irradiation), SK-MEL-28 cells were treated with studied PSs for 24 h in the dark. Viability was evaluated after two washing steps using the Neutral Red (NR; Sigma-Aldrich (Merck, Darmstadt, Germany) uptake assay, based on the ability of the living cells to incorporate NR into their intact lysosomes (concentration of NR in cell culture medium was 30 μg/mL and incubation time with NR was 2 h). The absorbance of soluble NR in cell lysate was measured at λ = 540 nm using a Tecan Infinite 200 M plate reader (Tecan, Männedorf, Switzerland). The viability of each experimental group was expressed as the percentage of the untreated controls incubated under the same conditions (100%). After staining (before lysis), the cells were briefly investigated under the microscope to verify changes in cellular morphology and the presence of NR in lysosomes (orange-red spots in the cells). These observations were in agreement with NR measurements.
(§3) The concentrations of the studied compounds that induced a 50% decrease in cellular viability after treatment under the dark conditions (TC50, the median toxic concentration) or after the photodynamic treatment (EC50, the median effective concentration) were calculated using GraphPad Prism software (version 9.1.2; GraphPad Software, Inc., San Diego, CA, USA) for each independent experiment. The data are presented as the means ± standard deviations of these values.

[7] = test system: human melanoma (SK-MEL-28) cells; experiment: Photodynamic activity (phototoxicity) after light activation, Neutral Red uptake; format: cell-based
Method: as §1, §2
(§4) For the photodynamic activity assessment experiments (phototoxicity), both HeLa and SK-MEL-28 cells were incubated overnight (12 h) with the studied compounds. The cells were then carefully and swiftly washed twice with a prewarmed sterile phosphate-buffered saline, fresh cell culture medium was added, and cells were subsequently irradiated for 15 min using a 450 W ozone-free Xe lamp (Newport; intensity reduced to 400 W). The lamp was equipped with a long-pass filter (Newport 20CGA-455) and an 8-cm water filter to cut off undesirable wavelengths and heat radiation, respectively (λ > 455 nm, 15.3 mW cm^−2, 15 min, 13.7 J cm^−2). Cellular viability was measured after an additional 24 h by the above-mentioned NR uptake assay. At least four independent experiments, each in triplicate, were performed.
as §3

[8] = test system: human cervical carcinoma (HeLa) cells; experiment: as above; format: cell-based; settings: Homo sapiens, light or radiation study; HeLa; 12 h incubation; λ > 455 nm, 15.3 mW cm−2, 15 min, 13.7 J cm−2
Method: as §1, §2, §4, §3

[9] = Photobleaching in serum-containing cell culture medium; format: physicochemical; settings: 10 µM, 1 h of irradiation, 500W halogen lamp
Method: The photobleaching experiments were performed in a serum-containing cell culture medium at a concentration of 10 µM. The samples were prepared by direct dilution from the 1 mM DMSO stock solution (0.5 mM in case of 4b). The quartz cuvette with the sample (2.5 mL) was irradiated by the 500W halogen lamp (Tip) from a distance of 60 cm at room temperature. The light was filtered through a 7 cm water filter to eliminate heat. The absorption spectra were collected every 10 min. The experiment was performed in triplicate.

[10] = Absorption and fluorescence measurements (quantum yield, lifetime); format: physicochemical; settings: MeOH
Method: The singlet oxygen quantum yields (ΦΔ) and the fluorescence quantum yields (ΦF) of tested samples in MeOH were determined using published comparative (relative) methods with rhodamin-G6 used as a reference for fluorescence (ΦF = 0.94 in EtOH [31]), and bengal rose as a reference for singlet oxygen determinations (ΦΔ = 0.76 in MeOH [32]). Singlet oxygen measurements were performed with 1,3-diphenylisobenzofuran as the chemical scavenger of singlet oxygen by monitoring its decomposition at 417 nm. The ΦF values were also determined by an absolute method using an integrating sphere in an FLS1000 fluorimeter (Edinburgh Instruments, Edinburgh, UK). Fluorescence lifetimes were measured on the same fluorimeter upon excitation by HPL510 laser (Edinburgh Instruments, λ = 506.1 nm).

C[C@@H]1CC[C@@]2(OC1)O[C@H]1[C@@H](O)[C@H]3[C@@H]4CC[C@H]5C[C@@H](O[C@@H]6O[C@H](CO)[C@H](O[C@@H]7O[C@H](CO)[C@@H](O)[C@H](O[C@@H]8OC[C@@H](O)[C@H](O)[C@H]8O)[C@H]7O[C@@H]7O[C@H](CO)[C@H](O)[C@H](O[C@@H]8O[C@H](CO)[C@@H](O)[C@H](O)[C@H]8O)[C@H]7O)[C@H](O)[C@H]6O)[C@H](O)C[C@]5(C)[C@H]4CC[C@]3(C)[C@H]1[C@@H]2C [digitonin]
delay between luminescence (Annexin V) and fluorescence (DNA probe) signal surge, positive controls (SK-MEL-28 cells [1]): simultaneous and immediate rise in luminescence and fluorescence

CN(C)c1ccc2nc3ccc(=[N+](C)C)cc-3sc2c1 [Methylene blue]
TC50, dark toxicity (HeLa cells [2]): 22.7 ± 7.9 ^d μM | EC50 (HeLa cells [3]): 5.15 ± 1.93 µM | TC50/EC50, phototherapeutic index (HeLa cells [3]): 4.4 ^d

CCN=c1cc2oc3cc(NCC)c(C)cc3c(-c3ccccc3C(=O)OCC)c-2cc1C.Cl [rhodamin-G6]
fluorescence quantum yield (ΦF) of reference [4]: 0.94

Oc1cccc(-c2c3nc(c(-c4cccc(O)c4)c4ccc([nH]4)c(-c4cccc(O)c4)c4nc(c(-c5cccc(O)c5)c5ccc2[nH]5)CC4)C=C3)c1 [temoporfin]
TC50, dark toxicity (HeLa cells [2]): 20.6 ± 2.5 ^d μM | EC50 (HeLa cells [3]): 0.045 ± 0.007 µM | TC50/EC50, phototherapeutic index (HeLa cells [3]): 460 ^d

CC(=O)O[C@H]1C(=O)[C@@]2(C)[C@H]([C@H](OC(=O)c3ccccc3)[C@]3(O)C[C@H](OC(=O)[C@H](O)[C@@H](NC(=O)c4ccccc4)c4ccccc4)C(C)=C1C3(C)C)[C@]1(OC(C)=O)CO[C@@H]1C[C@@H]2O [paclitaxel]
delay between luminescence (Annexin V) and fluorescence (DNA probe) signal surge, positive controls (SK-MEL-28 cells [1]): ~11.5 h

O=C(O)c1c(Cl)c(Cl)c(Cl)c(Cl)c1-c1c2cc(I)c(=O)c(I)c-2oc2c(I)c(O)c(I)cc12 [bengal rose]
singlet oxygen quantum yield (ΦΔ) of reference [5]: 0.76

CC1=CC(C)=[N+]2C1=C(c1ccc(OCCCCCN3C(=O)c4ccccc4C3=O)cc1)c1c(C)cc(C)n1[B-]2(F)F [2a, 1,3,5,7-Tetramethyl-8-{4-[5-(phthalimidyl)pentyloxy]phenyl}-4,4-difluoro-4-bora-3a,4a-diaza-s-indacene]
TC50, dark toxicity (SK-MEL-28 cells [6]): >10^b μM | TC50/EC50, phototherapeutic index [7]: >3.92 | EC50 ([7]; Homo sapiens, light or radiation study, 12 h incubation, λ > 455 nm, 15.3 mW cm−2, 15 min, 13.7 J cm−2): 2.55 ± 0.14 µM | EC50 [8]: 3.6 ± 0.19 µM | absorption remaining, of the original value, after irradiation (photobleaching) [9]: approximately 87% | absorption maximum (λmax) [10]: 498 nm | emission maximum (λF) [10]: 507 nm | extinction coefficient (log ε) ([10]; at λmax): 4.77 | fluorescence quantum yield, absolute method (ΦF(absol)) ([10]; integrating sphere): 0.52 | fluorescence quantum yield, relative method (ΦF(relat)) ([10]; rhodamin-G6 as reference): 0.49 | fluorescence lifetime (τF) ([10]; λexc = 506.1 nm): 3.27 ns

C=CC1=C(C)c2cc3[nH]c(cc4nc(cc5[nH]c(cc1n2)c(C)c5CCC(=O)O)C(CCC(=O)O)=C4C)c(C)c3C=C [Pp IX, protoporphyrin IX]
TC50, dark toxicity (HeLa cells [2]): >10 ^b,d μM | EC50 (HeLa cells [3]): 0.8 ± 0.13 µM | TC50/EC50, phototherapeutic index (HeLa cells [3]): >10 ^d

B1: TRAIL: inducer of extrinsic-pathway apoptosis, positive control (protein, UniProt P50591 1-281, looked up)
Tumor necrosis factor ligand …: MAMMEVQGGPSLGQTCVLIVIFTVLLQSLCVAVTYVYFTNELKQMQDKYSKSGIACFLKEDDSYWDPNDEESMNSPCWQVKWQLRQLVRKMILRTSEETISTVQEKQQNISPLVRERGPQRVAAHITGTRGRSNTLSSPNSKNEKALGRKINSWESSRSGHSFLSNLHLRNGELVIHEKGFYYIYSQTYFRFQEEIKENTKNDKQMVQYIYKYTSYPDPILLMKSARNSCWSKDAEYGLYSIYQGGIFELKENDRIFVSVTNEHLIDMDHEASFFGAFLVG
delay between luminescence (Annexin V) and fluorescence (DNA probe) signal surge, positive controls (SK-MEL-28 cells [1]): approximately 3.5 h
